Experimental data taken from the NIST ThermoML archive (doi:10.1021/acs.jced.8b00236).

Assay: mn = molality of the nth substance listed, in mol/kg
Conditions: 75 kPa, Liquid; for viscosity: Capillary tube (Ostwald / Ubbelohde) method; for speed of sound: Frequency=3 MHz, Single path-length method; for mass density: Vibrating tube method

NCCCCCC(=O)O [6-aminohexanoic acid] + O
Conditions | mass density [kg/m3] | speed of sound [m/s] | viscosity [mPa·s]
288.15 K, m1 = 0.1386 | 1002.94 | 1484.1 | 1.237
288.15 K, m1 = 0.2786 | 1006.69 | 1501.7 | 1.324
288.15 K, m1 = 0.4193 | 1010.34 | 1518.8 | 1.43
288.15 K, m1 = 0.5602 | 1013.86 | 1535.5 | 1.543
288.15 K, m1 = 0.7027 | 1017.3 | 1551.7 | 1.676
288.15 K, m1 = 0.8448 | 1020.62 | 1566.7 | 1.804
288.15 K, m1 = 0.9881 | 1023.86 | 1581.4 | 1.945
288.15 K, m1 = 1.132 | 1026.99 | 1595.3 | 2.103
293.15 K, m1 = 0.1386 | 1001.94 | 1499.7 | 1.088
293.15 K, m1 = 0.2786 | 1005.61 | 1516.3 | 1.158
293.15 K, m1 = 0.4193 | 1009.17 | 1532.6 | 1.25
293.15 K, m1 = 0.5602 | 1012.62 | 1548.3 | 1.344
293.15 K, m1 = 0.7027 | 1016.01 | 1563.8 | 1.459
293.15 K, m1 = 0.8448 | 1019.28 | 1578.3 | 1.566
293.15 K, m1 = 0.9881 | 1022.48 | 1592.5 | 1.689
293.15 K, m1 = 1.132 | 1025.6 | 1606 | 1.825
298.15 K, m1 = 0.1386 | 1000.74 | 1513 | 0.962
298.15 K, m1 = 0.2786 | 1004.36 | 1529 | 1.025
298.15 K, m1 = 0.4193 | 1007.89 | 1544.6 | 1.103
298.15 K, m1 = 0.5602 | 1011.3 | 1559.8 | 1.183
298.15 K, m1 = 0.7027 | 1014.65 | 1574.6 | 1.277
298.15 K, m1 = 0.8448 | 1017.88 | 1588.6 | 1.377
298.15 K, m1 = 0.9881 | 1021.04 | 1602.2 | 1.481
298.15 K, m1 = 1.132 | 1024.11 | 1615.3 | 1.59
303.15 K, m1 = 0.1386 | 999.323 | 1524.5 | 0.865
303.15 K, m1 = 0.2786 | 1002.91 | 1539.8 | 0.916
303.15 K, m1 = 0.4193 | 1006.4 | 1554.7 | 0.984
303.15 K, m1 = 0.5602 | 1009.78 | 1569.1 | 1.062
303.15 K, m1 = 0.7027 | 1013.08 | 1583.2 | 1.137
303.15 K, m1 = 0.8448 | 1016.26 | 1596.8 | 1.222
303.15 K, m1 = 0.9881 | 1019.37 | 1610 | 1.314
303.15 K, m1 = 1.132 | 1022.39 | 1622.5 | 1.423
308.15 K, m1 = 0.1386 | 997.675 | 1534.6 | 0.781
308.15 K, m1 = 0.2786 | 1001.24 | 1549.2 | 0.821
308.15 K, m1 = 0.4193 | 1004.7 | 1563.5 | 0.881
308.15 K, m1 = 0.5602 | 1008.06 | 1577.4 | 0.949
308.15 K, m1 = 0.7027 | 1011.35 | 1591 | 1.02
308.15 K, m1 = 0.8448 | 1014.52 | 1603.9 | 1.096
308.15 K, m1 = 0.9881 | 1017.62 | 1616.4 | 1.177
308.15 K, m1 = 1.132 | 1020.64 | 1628.4 | 1.267
